System: patients scheduled for elective percutaneous coronary intervention (PCI) with high-risk features for periprocedural myocardial infarction
Assay: Randomized placebo-controlled study of P5P in patients undergoing elective PCI: recovery, length of hospitalization, time to discharge
Type: in vivo, human
Text: Selection of Study Population—The patients selected for this trial were patients scheduled for elective percutaneous coronary intervention (PCI) with high-risk features for periprocedural myocardial infarction, and who satisfied specific inclusion criteria as described in the next section. Patients to be included in this study were of either sex, >18 years of age and admitted to hospital for elective, single-vessel, non-urgent PCI. Patients must have presented with at least one of the following high-risk clinical criteria: • ACS with last chest pain episode (or ischemic equivalent) within 48 hours, • recent myocardial infarction (≦7 days) with return of cardiac markers, (CK, CK-MB, and troponin) to below upper normal limits, • angiographic evidence of reduced epicardial flow (TIMI<3), • angiographic evidence of thrombus, • left ventricular ejection fraction≦30%, or • saphenous vein graft lesion.
The following patients were not eligible for inclusion into the study: • Those having suffered a recent myocardial infarction with elevated cardiac markers (CK-MB, troponin T), that have not returned to below upper limits or normal; • Those with electrocardiographic evidence of left bundle branch block (LBBB), ventricular paced rhythm, or atrial fibrillation; • Those with a planned multivessel PCI or PCI of known total occlusion (TIMI grade 0); • Those with evidence of ongoing or active clinical instability including; sustained systolic blood pressure<90 mmHg, cardiogenic shock, acute pulmonary edema or severe congestive heart failure, suspected acute myocarditis, pericarditis, endocarditis, cardiac tamponade, suspected dissecting aortic aneurysm, hemodynamically significant valvular heart disease, hypertrophic cardiomyopathy, restrictive cardiomyopathy, or congenital heart disease; • Any contraindication to the PCI procedure or any of the standard concomitant therapies used during routine PCI (e.g. aspirin, clopidogrel, heparin, low molecular weight heparin, direct antithrombin inhibitors, platelet glycoprotein IIb/IIIa antagonists); • Patients who were currently enrolled in a clinical trial of an investigational drug or who have participated in a clinical trial for an investigational drug (a new chemical entity not registered for clinical use) within 30 days preceding entry into the study or who are due to enter such a trial during the study period; • Patients with clinically significant abnormal laboratory findings (within 2 weeks prior to PCI) including: ALT, AST, bilirubin, or Alk Phos>1.5×ULN, Serum creatinine>1.8 mg/dL or 159 μmol/L; • Patients with any other pathology such as cancer, mental illness etc., which in the opinion of the investigator, might put the patient at risk or confound the results of the trial; • Female patients who are pregnant, breast feeding or planning a pregnancy during the course of the study; and • Patients who are unable or unwilling to comply with the protocol or who are not expected to complete the study period.
Treatments Administered—Following baseline laboratory assessments, patients were randomized to placebo or P5P (a vitamin B6 related compound), administered as a 10 mg/kg oral dose, at least (4) hours prior to PCI, followed by 10 mg/kg orally divided in two daily doses for fourteen (14) days. If PCI was delayed for more than 12 hours after initial dosing, they continued with scheduled BID dosing. If the initial loading dose was administered prior to or at 12:00 PM on day 1 of randomization, then the patient received a second evening dose. If the initial loading dose was administered following 12:00 PM, then no further dosing was administered on day 1, and the patient was to begin the next dose in the morning of day 2. If a dose was missed for more than 24 hours, patients were to continue to take the study drug as scheduled without taking supplemental doses. The date, time and dosing of the first and last study drug dosing was recorded in the CRF. […]

[1] = P5P 10 mg/kg oral, N = 37 (3 missing)

## Cc1ncc(COP(=O)(O)O)c(C=O)c1O [P5P, pyridoxal-5′-phosphate]
3.3 days versus 7.0 days for placebo
  Time in hospital relative to placebo: half as long
P5P 10 mg/kg oral at least 4 h prior to PCI, then 10 mg/kg/day for 14 days, N = 40
  Length of hospitalization, Median (25th, 75th): 1.0 (1.0, 3.0) days
P5P 10 mg/kg oral at least 4 h prior to PCI, then 10 mg/kg/day in two daily doses for 14 days, N = 40
  Length of hospitalization, Mean (S.D.): 3.3 (5.5) days
P5P 10 mg/kg oral, N = 37
  Time to discharge from initiation of PCI, Maximum: 34.0 days
  Time to discharge from initiation of PCI, Minimum: 1.0 days
[1]
  Time to discharge from initiation of PCI, Mean (S.D): 1.9 (5.4) days
  Time to discharge from initiation of PCI, Medium (25th, 75th): 1.0 (1.0, 1.0) days
P5P 10 mg/kg oral, N = 40
  Length of hospitalization, Maximum: 34.0 days
  Length of hospitalization, Minimum: 0.0 days
P5P versus placebo
  Number of days from initiation of PCI to discharge from hospital, shorter versus placebo: 74%
Placebo 7.0 days
  Time in hospital: 3.3 days

Reference: patent US20080214504A1, “Vitamin B6 Related Compounds and Methods for Recovery From Trauma” (MEDICURE INTERNATIONAL INC., priority 2004, published 2008)
